Measurements as given in patent US20230301885A1, “NOVEL USE” (DSM IP ASSETS B.V., priority 2020, published 2023).

Columns and labels:
M. globosa = experiment: Microbiome balance model, sebaceous skin mixture: M. globosa; type: cell-based, Malassezia globosa; settings: 4 h at 37° C.
Description: (§1) Thus, in particular the term ‘by not unproportionally affecting the growth of anyone thereof’ refers to a balancing of at least two, preferably all dry skin or sebaceous skin microbes as defined herein in the mutual presence thereof, wherein only small changes in the difference in the (individual) shares of the microbes compared to the corresponding shares of the control are observed. Preferably, the small changes in the (individual) share (after 4 h of incubation at 37° C.) is less than ±15%, in particular less than ±10%, most in particular less than ±7.5%, compared to the control. Said change in the share is calculated as: share of the respective microbe within the group of at least two, preferably all microbes of dry or sebaceous skin in the presence of 1,3-PDO [%] minus share of the same microbe within the same group of microbes in the absence of 1,3-PDO [%], both after 4 h of incubation at 37° C. as illustrated in the example.
(§2) The ‘not unproportionally affected growth’ can also be assessed by determining an overall impact value, by • (1) assessing the impact of the ingredient on the individual microbe (i) and assigning an individual impact value x′(i) to said microbe as outlined below: • [formula] • If x(i) is • a) ≤ 0.1 then an integer x′(i) of 1 is assigned (no impact) • b) >0.1 ≤ 0.5then an integer x′(i) of 2 is assigned (slight impact) • c) > 0.5 then an integer x′(i) of 3 is assigned (significant impact), followed by • (2) assessing the overall effect of the ingredient on the respective microbiome by calculating the overall impact value y with formula (II) • [formula] • with n being the total number of microbes in the respective microbiota, wherein a good balancing is characterized by an overall impact value y of less than 2, preferably less than 1.75, most preferably less than 1.7.
(§3) 5 mL of TSB (Tryptic Say Broth) to which no (Ref.1) or 500 µL of 2 wt.-% of 1,3-propanediol (1,3-PDO) in PBS (Phosphate-buffered saline) have been added. Then this solutions have been inoculated by 500 µL of the respective calibrated mixture of the microbes as outlined below. Directly after inoculation and/or after 4 hours of incubation at 37° C., 100 µL have been taken and plated on an Agar gel petri dish. The microbes have then been counted based on the colony specific morphology and/or size.
(§4) All shares have been rounded.

C.simulans = experiment: Microbiome balance model, sebaceous skin mixture: C. simulans; type: cell-based, Corynebacterium simulans; settings: 4 h at 37° C.
Description: as §1, §2, §3, §4

S. epidermidis [1] = experiment: Microbiome balance model, S. epidermidis/S. aureus co-culture: S. epidermidis; type: cell-based, Staphylococcus epidermidis; settings: co-culture with S. aureus
Description: (§5) The term ‘share’ as used herein refers to the share of each (individual) microbe, based on the total number of microbes in the respective group of microbes in % (i.e. the at least two, preferably all dry or sebaceous skin microbes as defined herein, respectively S. epidermidis and ), either before or after inoculation (as indicated). The share is calculated using the colony count of the respective (individual) microbe divided by the sum of the colony counts of all microbes of the respective microbiota * 100%.
as §3, §4

S. capitis = experiment: Microbiome balance model, sebaceous skin mixture: S. capitis; type: cell-based, Staphylococcus capitis; settings: 4 h at 37° C.
Description: as §1, §2, §3, §4

S. mitis = experiment: Microbiome balance model, sebaceous skin mixture: S. mitis; type: cell-based, Streptococcus mitis; settings: 4 h at 37° C.
Description: as §1, §2, §3, §4

S. aureus = experiment: Microbiome balance model, S. epidermidis/S. aureus co-culture: S. aureus; type: cell-based, Staphylococcus aureus; settings: co-culture with S. epidermidis
Description: as §5, §3, §4

S. epidermidis [2] = experiment: Microbiome balance model, sebaceous skin mixture: S. epidermidis; type: cell-based, Staphylococcus epidermidis; settings: 4 h at 37° C.
Description: as §1, §2, §3, §4

[3] = test system: microbes of sebaceous skin; experiment: Microbiome balance model, sebaceous skin mixture: total of all microbes; type: cell-based; settings: 4 h at 37° C.
Description: Preferably, the difference in total number of said at least two, preferably all microbes, compared to the respective total number in the absence of 1,3-propanediol (i.e. the control), after 4 h of incubation at 37° C., is within a range of ±50%, preferably ±40%, more preferably ±15%, most preferably ±10%.
as §2, §3, §4

C. acnes = experiment: Microbiome balance model, sebaceous skin mixture: C. acnes; type: cell-based, Cutibacterium acnes; settings: 4 h at 37° C.
Description: as §1, §2, §3, §4

S. hominis = experiment: Microbiome balance model, sebaceous skin mixture: S. hominis; type: cell-based, Staphylococcus hominis; settings: 4 h at 37° C.
Description: as §1, §2, §3, §4

[4] = after 4 hours of incubation at 37° C.
[5] = directly after inoculation, 500 µL of 2 wt.-% in PBS in 5 mL TSB

## CCCC(O)CO (stereo not shown) [pentylene glycol, 1,2-pentanediol, reference compound]
M. globosa
  M. globosa change in share vs control: +1%^1
  M. globosa counts of colony: 830 CFU/ml
  M. globosa share: 8%
  M. globosa valuation, impact value x(i)′: 2^3 (>0.1 ≤ 0.5then an integer x′(i) of 2 is assigned (slight impact))
C.simulans
  C.simulans change in share vs control: -3%^1
  C.simulans counts of colony: 450 CFU/ml
  C.simulans share: 4%
  C.simulans valuation, impact value x(i)′: 2^3 (>0.1 ≤ 0.5then an integer x′(i) of 2 is assigned (slight impact))
S. epidermidis [1]; [4]
  CSE4h counts of colony of S. epidermidis: 3200 CFU/ml
  CSE4h share of S. epidermidis: 55%
S. epidermidis [1]; directly after inoculation
  CSE0 share of S. epidermidis: 80%
S. epidermidis [1]; [5]
  CSE0 counts of colony of S. epidermidis: 1100 CFU/ml
S. capitis
  S. capitis counts of colony: 1100 CFU/ml
  S. capitis share: 11%
  S. capitis valuation, impact value x(i)′: 3^3 (> 0.5 then an integer x′(i) of 3 is assigned (significant impact))
S. mitis
  S. mitis change in share vs control: +0.5%^1
  S. mitis counts of colony: 380 CFU/ml
  S. mitis share: 4%
  S. mitis valuation, impact value x(i)′: 2^3 (>0.1 ≤ 0.5then an integer x′(i) of 2 is assigned (slight impact))
S. aureus; 4 hours of incubation
  share of S. aureus, effect in words: not reduced
S. aureus; [4]
  CSA4h counts of colony of S. aureus: 3900 CFU/ml
  CSA4h share of S. aureus: 45%
S. aureus; directly after inoculation
  CSA0 share of S. aureus: 20%
S. aureus; [5]
  CSA0 counts of colony of S. aureus: 280 CFU/ml
S. epidermidis [2]
  S. epidermidis change in share vs control: +17%^1
  S. epidermidis counts of colony: 3300 CFU/ml
  S. epidermidis share: 32%
  S. epidermidis valuation, impact value x(i)′: 3^3 (> 0.5 then an integer x′(i) of 3 is assigned (significant impact))
[3]
  Change of total CFU/ml vs control: +2.60%^2
  Total counts of colony: 10160 CFU/ml
  Total share: 100%
  overall impact value y: 2.4^4
[3]; in contrast to 1,3-propanediol
  share of the microbes of sebaceous skin, effect in words: alter the share of the microbes of sebaceous skin to a greater extend
C. acnes
  C. acnes change in share vs control: -19.5%^1
  C. acnes counts of colony: 2000 CFU/ml
  C. acnes share: 20%
  C. acnes valuation, impact value x(i)′: 3^3 (> 0.5 then an integer x′(i) of 3 is assigned (significant impact))
S. hominis
  S. hominis counts of colony: 2100 CFU/ml
  S. hominis share: 21%
  S. hominis valuation, impact value x(i)′: 2^3 (>0.1 ≤ 0.5then an integer x′(i) of 2 is assigned (slight impact))
